Values quoted from earlier work in patent publication US9161933B2, “Solid pharmaceutical composition comprising amlodipine and losartan and process for producing same” (HANMI SCIENCE CO., LTD, priority 2009, dated 2015).

Settings: after food absorption

reduction of Cmax of losartan: about 10%
Compound: CCCCc1nc(Cl)c(CO)n1Cc1ccc(-c2ccccc2-c2nn[nH]n2)cc1 [losartan, 2-butyl-4-chloro-1-[[2′-(1H-tetrazol-5-yl)[1,1′-biphenyl]-4-yl]methyl]-1H-imidazol-5-methanol]
